Assay results taken from article PMC12009420, “Dynamically chiral phosphonic acid-type metallo-β-lactamase inhibitors” (Communications Chemistry, 2025).
Where two headings read alike, the source gives them in different places.

Legend:
[1] = molecular target: T1, GIM-1 (Pseudomonas aeruginosa, UniProt Q704V1); assay: Enzymatic metallo-β-lactamase assay on purified GIM-1; assay type: biochemical
Procedure: (§1) A few inhibitors were tested up to 1600 μM to ensure nearly complete inhibition. Solutions of 100 μL consisting of buffer, purified enzyme (1 nM for GIM-1 and VIM-2, 5 nM for NDM-1), inhibitor and reporter substrate nitrocefin (15 μM for VIM-2, 2 μM for GIM-1) or imipenem (30 μM for NDM-1) were incubated in triplicates on a 96 well plate for 5 min at 25 °C. Buffer solution consisted of 50 mM HEPES pH 7.2, 50 μM ZnSO4 and 0.4 mg/ml bovine serum albumine. Inhibitors were dissolved in DMSO but diluted to assure <2% DMSO in measured assay. Absorbance was measured at 482 nm (nitrocefin) and 300 nm (imipenem) on a SpectraMax M4 spectrophotometer. The initial velocity at each inhibitor concentration was analyzed in GraphPad Prism v9.3.1 and fitted to dose-response curves by non-linear regression (log [inhibitor] vs response) used to calculate IC50 (Supplementary Tables S2–5).

[2] = MTT cytotoxicity assay; assay type: cell-based; details: human, HepG2 cells
Procedure: Cytotoxic activity of the compounds was measured through the MTT colorimetric assay as previously described[60] using the Colorimetric (MTT) Kit for Cell Survival and Proliferation (Merck/Millipore; Darmstadt, Germany). HepG2 cells (human hepatocellular carcinoma cell line) were kept in penicillin/streptomycin-free medium overnight and then they were treated with the compounds for 24 h. Subsequently, the MTT reagent was added to the cells and after 3 h of incubation, MTT-derived formazan crystals were solubilized in acidified isopropanol (0.1 mL isopropanol with 0.04 N HCl). Absorbance was measured with multiscan spectrophotometer (Thermo Fisher Scientific) at 530 nm test and 630 nm reference wavelengths. Cell viability was expressed as the percentage of viable, untreated cells. CC50 values were determined with GraphPad Prism software (v9.3.1) and adjusted to dose-response curves by non-linear regression (Supplementary Table S7).
8. Cytotoxocity against HepG2 cells
Table S7. CC50 values and viability curves of metallo-β-lactamase inhibitors tested on HepG2 […]
cells. […]
range. Data are shown as % via bility values ± SEM (n=4). Calculations were done using […]
Inhibitors CC50 (μM) HepG2 […]

[3] = molecular target: T2, VIM-2 (Escherichia coli, UniProt Q5U7L7); assay: Enzymatic metallo-β-lactamase assay on purified VIM-2; assay type: biochemical
Procedure: as §1

[4] = molecular target: T1, GIM-1; assay: Enzymatic metallo-β-lactamase assay on purified GIM-1; assay type: biochemical; details: approximated from Dixon plots (1/v vs [I]) at one constant substrate concentration; ± SE; read-out: Estimated inhibition constant Ki GIM-1
[5] = molecular target: T2, VIM-2; assay: Enzyme steady state kinetic studies (inhibitor 5g and VIM-2); assay type: biochemical; details: for Ki / Vmax: nitrocefin
Procedure: Enzyme steady state kinetic studies were performed to determine the mechanism of inhibition using inhibitor 5g and VIM-2 (Section 7, Supplementary Information). […] Assays were conducted in triplicates on a 96 well plate. Absorbance was measured at 482 nm using a SpectraMax 190 plate reader. Solutions of 300 μL consisting of buffer, purified enzyme (0.3 nM VIM-2), inhibitor 5g and reporter substrate nitrocefin with final 2.5% DMSO were incubated in triplicates on a 96 well plate for 5 min at 30 °C. Buffer solution consisted of 50 mM HEPES pH 7.2, 50 μM ZnSO4 and 0.4 mg/ml bovine serum albumin.
7. Enzyme kinetic studies
Enzyme steady state kinetic studies were performed to determine the mechanism of inhibition using inhibitor 5g and VIM-2. Km’, Ki and Vmax values were determined (Table S6).
For data analysis, SimFit software was used to fit the initial reaction velocities (v₀) to a Michaelis-Menten (1:1) model (Figure S40a). […]
Table S6. Kinetic parameters (Km’, Ki and vmax values) of inhibitor 5g against VIM-2 using nitrocefin as reporter substrate.
Figure S40. a, Michaelis-Menten fitting of the substrate concentration dependence of initial reaction velocities. b, Double reciprocal plot of the data in a, for VIM-2 in the absence and presence of inhibitor 5g at two concentrations (36 μM and 72 μM) using nitrocefin as substrate. [I] is the concentration of inhibitor 5g.

[6] = molecular target: T3, 15N-labelled VIM-2 (Escherichia coli, UniProt Q5U7L7); assay: 1H,15N-HSQC titration of VIM-2; assay type: binding; details: 10 equivalents of compound, 600 MHz, pH 7.0, 25 °C
T3 construct: made in house
Procedure: The ^1H, ^15N-HSQC spectra for the titration experiments were recorded on a Bruker Avance Neo 600 MHz spectrometer equipped with a 5 mm TCI cryogenic probe at 25 °C. The U-[^15N]-labeled VIM-2 was prepared in a buffer of 20 mM KPO4, 0.1 mM ZnCl2, at pH 7.0, containing 85% H2O/15% D2O at a concentration of 0.25 mM. The U-[^15N]-labeled NDM-1 was used in a buffer of 20 mM HEPES, 0.1 mM ZnCl2, at pH 7.0, containing 85% H2O/15% D2O at a concentration of 0.25 mM. The ligands 5d, 5g, 5i, 5j (for VIM-2 titrations) and 5 f (for NDM-1 titration) were dissolved in the same buffer as the corresponding enzymes. Spectra were recorded using solvent suppression, 1024 points in f1, 16 transients, 512 increments in f2 and a relaxation delay of 0.2 s. The titrations were carried out with 0, 0.25, 0.50, 1.00, 1.50, 2.25, 3.00, 4.00, 5.00, 7.00, 10.0 equivalents of the inhibitors.
Figure S47. Superimposition of the 1H,15N-HSQC spectrum (600 MHz, pH 7.0, 25 °C) of
VIM-2 in the absence (blue) and in the presence (green) of 10 molar equivalent of compound
5j. Buffer: 20 mM KPO4, 0.1 mM ZnCl2, with 15% D2O.
Chemical shift perturbation values (CSP, ΔδNH) were calculated as the weighted average of
the chemical shift changes in f1 (ΔδN) and f2 (ΔδH) dimensions using the following equation 8:
∆δ = √∆δ 2 + ( N ); R = 6.5
Figure S48. Linear regression of the chemical shift perturbations of compound 5g (IC50 =
12 μM) as a function of the chemical shift perturbations of compounds 5c (yellow circle), 5d
(grey square), 5i (green triangle) and 5j (blue circle) for VIM-2. The data of the studied […]

T1 sequence (Q704V1 entry or part of it): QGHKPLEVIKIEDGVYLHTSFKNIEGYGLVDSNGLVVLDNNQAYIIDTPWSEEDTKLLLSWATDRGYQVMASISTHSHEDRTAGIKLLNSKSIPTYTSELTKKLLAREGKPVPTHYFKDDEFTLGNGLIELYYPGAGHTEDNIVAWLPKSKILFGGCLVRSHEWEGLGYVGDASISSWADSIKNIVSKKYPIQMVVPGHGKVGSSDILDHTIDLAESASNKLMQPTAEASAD

With O=C(NC(c1ccccc1O)P(=O)(O)O)c1scc2c1CCCC2 (stereo not drawn) [5g] the “logIC50 GIM-1” value ([1]; log of IC50, ± SEM of logIC50) was 1.33 ± 0.11 μM, the IC50 ([1]; purified enzyme 1 nM, nitrocefin 2 μM, pH 7.2, 25 °C) was 21 µM and the CC50 at 24 h ([2]; HepG2, MTT, read-out: CC50 (in viability curve)) was 1400 µM. For the same compound, the CC50 at 24 h ([2]; MTT, 0.0025 mM - 1mM concentration range, read-out: Cytotoxicity CC50 HepG2) was 1420 µM, the Ki ([3]; approximated from Dixon plots (1/v vs [I]) at one constant substrate concentration, ± SE, read-out: Estimated inhibition constant Ki VIM-2) was 43 ± 15 µM and the “logIC50 VIM-2” value ([3]; log of IC50, ± SEM of logIC50) was 1.06 ± 0.04 μM. The IC50 ([3]; purified enzyme 1 nM, nitrocefin 15 μM, pH 7.2, 25 °C) was 12 µM, the Ki [4] was 113 ± 66 µM and the Ki ([5]; Michaelis-Menten fit and Lineweaver-Burk plot, 30 °C) was 36 ± 3.3 µM. For the same compound, the Ki ([5]; [I] 36 μM) was 31.3 µM, the Ki ([5]; [I] 72 μM) was 40.7 µM and the inhibition mode ([5]; Michaelis-Menten model and Lineweaver-Burk plot) was “competitive inhibition”. The Vmax ([5]; [I] 36 μM) was 50.0 ΔA/min, the Vmax ([5]; [I] 72 μM) was 47.0 ΔA/min and the “Mean chemical shift perturbation, VIM-2” value [6] was 0.04 ppm.
